Reference: patent publication US20150196033A1, “PESTICIDAL COMPOSITIONS AND PROCESSES RELATED THERETO” (priority 2012, published 2015)

Experiments:
[1] = tested on: Beet Armyworm (BAW) (Spodoptera exigua); test: Bioassay on Beet Armyworm (BAW), 128-well diet tray assay; assay type: in vivo; details: second instar larvae, five to seven days; for mortality at 50 µg/cm2: read-out: Rating BAW (% Control (or Mortality))
Experimental: (§1) Certain molecules disclosed in this document were tested against BAW and CEW using procedures described in the following examples. In the reporting of the results, the “BAW & CEW Rating Table” was used (See Table Section).
Bioassays on BAW (Spodoptera exigua)
(§2) Trays were covered with a clear self-adhesive cover and held at 25° C., 14:10 light-dark for five to seven days. Percent mortality was recorded for the larvae in each well; activity in the eight wells was then averaged. The results are indicated in the table entitled “Table ABC: Biological Results” (See Table Section).

[2] = tested on: Corn Earworm (CEW) (Helicoverpa zea); test: Bioassay on Corn Earworm (CEW), 128-well diet tray assay; assay type: in vivo; details: second instar larvae, five to seven days; for mortality at 50 µg/cm2: read-out: Rating CEW (% Control (or Mortality)); for mortality at 0.5 µg/cm2: 0.5 μg/cm2 on artificial diet, read-out: Rating CEW (% Control (or Mortality)), *Tested at 0.5 μg/cm2
Experimental: as §1
Bioassays on CEW (Helicoverpa zea)
as §2

[3] = Spodoptera exigua, 168 h, 50 μg/cm2 on artificial diet
[4] = Helicoverpa zea, 168 h, 50 μg/cm2 on artificial diet

Structure (SMILES)	mortality at 50 µg/cm2 [1, 3]	mortality at 50 µg/cm2 [2, 4]	mortality at 0.5 µg/cm2 ([2]; Helicoverpa zea, 168 h)	also measured
Cc1cc(C)c(N2C(=O)C(C)S/C2=N\C(=O)Nc2ccc(-c3ncn(-c4ccc(OC(F)(F)F)cc4)n3)cc2)c(C)c1 (stereo not drawn) [Molecule A37]	50 to 100%	50 to 100%		
CCC1CS/C(=N\C(=O)Nc2ccc(-c3ncn(-c4ccc(OC(F)(F)F)cc4)n3)cc2)N1c1c(C)cc(C)cc1C (stereo not drawn) [Molecule A38]	50 to 100%	50 to 100%		
Cc1cccc(C)c1N1CC(C)CS/C1=N\C(=O)Nc1ccc(-c2ncn(-c3ccc(OC(F)(F)F)cc3)n2)cc1 (stereo not drawn) [Molecule A39]	50 to 100%	50 to 100%		
Cc1cc(C)c(N2/C(=N/C(=O)Nc3ccc(-c4ncn(-c5ccc(OC(F)(F)F)cc5)n4)cc3)SCC2C)c(C)c1 (stereo not drawn) [Molecule A40]				mortality at 12.5 µg/cm2 ([1]; Spodoptera exigua, 168 h, 12.5 μg/cm2 on artificial diet, read-out: Rating BAW (% Control (or Mortality)), **Tested at 12.5 μg/cm2): 50 to 100%; mortality at 12.5 µg/cm2 ([2]; Helicoverpa zea, 168 h, 12.5 μg/cm2 on artificial diet, read-out: Rating CEW (% Control (or Mortality)), **Tested at 12.5 μg/cm2): 50 to 100%
Cc1cc(C)c(N2CC(C)CS/C2=N\C(=O)Nc2ccc(-c3ncn(-c4ccc(OC(F)(F)F)cc4)n3)cc2)c(C)c1 (stereo not drawn) [Molecule A41]	50 to 100%	50 to 100%		
Cc1cccc(C)c1-n1c(C)cs/c1=N\C(=O)Nc1ccc(-c2ncn(-c3ccc(OC(F)(F)F)cc3)n2)cc1 [Molecule A42]	0 to 50%	0%		
Cc1cc(C)c(-n2c(C)cs/c2=N\C(=O)Nc2ccc(-c3ncn(-c4ccc(OC(F)(F)F)cc4)n3)cc2)c(C)c1 [Molecule A43, (Z)-1-(3-mesityl-4-methylthiazol-2(3H)-ylidene)-3-(4-(1-(4-(trifluoromethoxy)phenyl)-1H-1,2,4-triazol-3-yl)phenyl)urea]	0%	50 to 100%		
CC(C)c1ccccc1N/C(S)=N/C(=O)Nc1ccc(-c2ncn(-c3ccc(OC(F)(F)F)cc3)n2)cc1 [Molecule A48]	50 to 100%	50 to 100%		
Cc1cc(C)c(N/C(S)=N/C(=O)Nc2ccc(-c3ncn(-c4ccc(OC(F)(F)F)cc4)n3)cc2)c(C)c1 [Molecule A49]	50 to 100%	50 to 100%		
COc1cc(C)c(N/C(S)=N/C(=O)Nc2ccc(-c3ncn(-c4ccc(OC(F)(F)F)cc4)n3)cc2)c(C)c1 [Molecule A50]	50 to 100%	50 to 100%		
Cc1ccccc1NC(=O)NC(=O)Nc1ccc(-c2ncn(-c3ccc(OC(F)(F)F)cc3)n2)cc1 [Molecule A51]	50 to 100%	50 to 100%		
CCc1ccccc1NC(=O)NC(=O)Nc1ccc(-c2ncn(-c3ccc(OC(F)(F)F)cc3)n2)cc1 [Molecule A52]	50 to 100%	50 to 100%		
COc1ccc(NC(=O)NC(=O)Nc2ccc(-c3ncn(-c4ccc(C(F)(F)F)cc4)n3)cc2)c(C)c1 [Molecule A53]				Rating BAW (% Control (or Mortality)) ([1]; 50 μg/cm2 on artificial diet): D (No activity noticed in this bioassay); Rating CEW (% Control (or Mortality)) ([2]; 50 μg/cm2 on artificial diet): D (No activity noticed in this bioassay)
CCC(C)c1ccccc1N/C(=N\C(=O)Nc1ccc(-c2ncn(-c3ccc(OC(F)(F)F)cc3)n2)cc1)SCOC(=O)C(C)C (stereo not drawn) [Molecule A54]	50 to 100%	50 to 100%		
CCc1cccc(C)c1N/C(=N\C(=O)Nc1ccc(-c2ncn(-c3ccc(OC(F)(F)F)cc3)n2)cc1)SCOC(=O)C(C)C [Molecule A55]	50 to 100%	50 to 100%		
COc1ccc(N/C(=N\C(=O)Nc2ccc(-c3ncn(-c4ccc(OC(F)(F)F)cc4)n3)cc2)SCOC(=O)C(C)C)c(C)c1 [Molecule A56]	50 to 100%	50 to 100%		
CCc1ccccc1N/C(=N\C(=O)Nc1ccc(-c2ncn(-c3ccc(OC(F)(F)F)cc3)n2)cc1)SCOC(=O)C(C)C [Molecule A57]	50 to 100%	50 to 100%		
CC(C)C(=O)OCS/C(=N/C(=O)Nc1ccc(-c2ncn(-c3ccc(OC(F)(F)F)cc3)n2)cc1)Nc1c(Cl)cccc1Cl [Molecule A58]	50 to 100%	50 to 100%		

Structure (SMILES)	mortality at 50 µg/cm2 [1, 3]	mortality at 50 µg/cm2 [2, 4]	mortality at 0.5 µg/cm2 ([2]; Helicoverpa zea, 168 h)	also measured
Cc1cc(C)c(N/C(=N\C(=O)Nc2ccc(-c3ncn(-c4ccc(OC(F)(F)F)cc4)n3)cc2)SCOC(=O)C(C)C)c(C)c1 [Molecule A59]	50 to 100%	50 to 100%		
Cc1ccccc1N/C(=N\C(=O)Nc1ccc(-c2ncn(-c3ccc(OC(F)(F)F)cc3)n2)cc1)SCOC(=O)C(C)C [Molecule A60]	50 to 100%	50 to 100%		
CC(C)C(=O)OCS/C(=N/C(=O)Nc1ccc(-c2ncn(-c3ccc(OC(F)(F)F)cc3)n2)cc1)Nc1c(F)cccc1F [Molecule A61]	50 to 100%	50 to 100%		
O=C(/N=C(\S)Nc1ccccc1C1CC1)Nc1ccc(-c2ncn(-c3ccc(OC(F)(F)F)cc3)n2)cc1 [Molecule A63]	50 to 100%		50 to 100%	
CCCc1ccccc1N/C(S)=N/C(=O)Nc1ccc(-c2ncn(-c3ccc(OC(F)(F)F)cc3)n2)cc1 [Molecule A64]	50 to 100%		50 to 100%	
CC(C)(C)c1ccccc1N/C(S)=N/C(=O)Nc1ccc(-c2ncn(-c3ccc(OC(F)(F)F)cc3)n2)cc1 [Molecule A67]	50 to 100%		50 to 100%	
Cc1ccc(N/C(S)=N/C(=O)Nc2ccc(-c3ncn(-c4ccc(OC(F)(F)F)cc4)n3)cc2)c(C)c1 [Molecule A68]	50 to 100%		50 to 100%	
Cc1cccc(Cl)c1N/C(S)=N/C(=O)Nc1ccc(-c2ncn(-c3ccc(OC(F)(F)F)cc3)n2)cc1 [Molecule A70]	50 to 100%		50 to 100%	
Cc1ccc(Cl)cc1N/C(S)=N/C(=O)Nc1ccc(-c2ncn(-c3ccc(OC(F)(F)F)cc3)n2)cc1 [Molecule A72]	50 to 100%		50 to 100%	
Cc1ccc(N/C(S)=N/C(=O)Nc2ccc(-c3ncn(-c4ccc(OC(F)(F)F)cc4)n3)cc2)c(Cl)c1 [Molecule A73]	50 to 100%		50 to 100%	
Cc1cccc(Cl)c1N1C(=O)CS/C1=N\C(=O)Nc1ccc(-c2ncn(-c3ccc(OC(F)(F)F)cc3)n2)cc1 [Molecule A74]	50 to 100%		50 to 100%	
Cc1cccc(N2C(=O)CS/C2=N\C(=O)Nc2ccc(-c3ncn(-c4ccc(OC(F)(F)F)cc4)n3)cc2)c1C [Molecule A75]	50 to 100%		50 to 100%	
Cc1ccc(Cl)cc1N1C(=O)CS/C1=N\C(=O)Nc1ccc(-c2ncn(-c3ccc(OC(F)(F)F)cc3)n2)cc1 [Molecule A76]	50 to 100%		50 to 100%	
Cc1c(F)cccc1N/C(S)=N/C(=O)Nc1ccc(-c2ncn(-c3ccc(OC(F)(F)F)cc3)n2)cc1 [Molecule A79]	50 to 100%		50 to 100%	
CC(C)c1cccc(Cl)c1N/C(S)=N/C(=O)Nc1ccc(-c2ncn(-c3ccc(OC(F)(F)F)cc3)n2)cc1 [Molecule A81]	50 to 100%	50 to 100%		
CC(C)c1ccc(F)cc1N/C(S)=N/C(=O)Nc1ccc(-c2ncn(-c3ccc(OC(F)(F)F)cc3)n2)cc1 [Molecule A82]	50 to 100%		50 to 100%	
Cc1ccc(N/C(S)=N/C(=O)Nc2ccc(-c3ncn(-c4ccc(OC(F)(F)F)cc4)n3)cc2)c(C(C)C)c1 [Molecule A84]	50 to 100%		50 to 100%	
CC(C)c1ccc(F)cc1N1C(=O)CS/C1=N\C(=O)Nc1ccc(-c2ncn(-c3ccc(OC(F)(F)F)cc3)n2)cc1 [Molecule A86]	50 to 100%		50 to 100%	
